Laboratory results published in patent US20250257364A1, “RNA-GUIDED DNA TRANSPOSITION” (priority 2024, published 2025).

How the values were obtained:
[1] = tested on: E. coli folA CRISPRtOE strains vs lacZ controls
Experimental: (§1) CRISPRtOE library growth experiments. Competition experiment growth. The E. coli CRISPRtOE murA and folA libraries were mixed in equal volume with the LP-lacZ library: 50 μl frozen stock (OD600=10) of each library (murA+LP-lacZ and folA+LP-lacZ) into 100 ml LB (starting OD600=0.01) in a 500 ml flask and incubated shaking at 37° C. until OD600=0.2 (˜2.5 h) (timepoint=T0) to revive the cells. […] (T1). These cultures were serially diluted back to OD600=0.01 into fresh tubes containing the same media and incubated again with shaking for 18 h at 37° C. (T2) for a total of ˜10-15 doublings. Cells were pelleted from 15 ml of culture in duplicate at each time point T0 and 1 ml of culture at timepoints T1 and T2 and stored at −20° C.
(§2) To test for overexpression phenotypes, the folA or murA library was mixed 50:50 with the lacZ control library and cells were grown in the presence/absence of TMP or FOS, respectively.

[2] = tested on: E. coli folA CRISPRtOE isolates vs parent strains; conditions: TMP 0.04-20 μg/ml, MHB, 20 h
Experimental: MIC assays. The minimal inhibitory concentration (MIC) of E. coli folA and murA CRISPRtOE isolates was determined by either growth in a microtiter plate or by disc diffusion assays, respectively. For the broth microdilution assay, CRISPRtOE isolates and WT controls were grown to saturation from an isolated colony and serially diluted to OD600=0.003) and the CRISPRtOE library was diluted from a glycerol stock to the same density. […] E. coli folA CRISPRtOE isolates, the folA CRISPRtOE library, a lacZ CRISPRtOE control, and WT cultures and the media containing antibiotic were mixed in equal proportions and incubated 20 h shaking at 37° C. prior to cell density (OD600) determination in a microplate reader. For the MIC strip assays, E. coli folA or murA CRISPRtOE isolates, a lacZ CRISPRtOE control, and WT cultures were diluted to OD600=0.3 and 300 μl was spread on a 100 mm MH agar plate and dried in a laminar flow cabinet. When dry, MIC strips (Liofilchem, Italy; 920371 (TMP 0.002-32 mg/L) and 920791(FOS 0.064-1024 mg/L)) were applied to the plate and 10 μl serially diluted antibiotics were applied to the discs. Plates were incubated at 37° C. for 18 h. Broth microdilution assays were repeated 3 times and MIC test strip assays twice.

[3] = tested on: E. coli whole genome CRISPRtOE library (promoter H)
Experimental: Whole genome experiment growth. The E. coli CRISPRtOE whole genome libraries with no promoter (sJMP10704) or promoter H (sJMP10705) were revived by dilution of 100 μl frozen stock (OD600=15) into 100 ml LB (starting OD600=0.015) and incubation in 500 ml flasks shaking at 37° C. until OD600=0.2 (˜2.5 h) (timepoint=TO). […] (T1). These cultures were serially diluted back to OD600=0.01 into fresh tubes containing the same media and incubated again with shaking for 18 h at 37° C. (T2) for a total of ˜10-15 doublings. Cells were pelleted from 15 ml of culture in duplicate at time point TO and 1 ml of culture at timepoints T1 and T2 and stored at −20° C.
A custom Python script (counting_spacers.py) was used to determine the number of times each spacer appeared in the filtered alignment file. […] Pairwise comparison of spacer counts in DMSO and TMP treatment samples was performed using edgeR^70 and a custom Rscript (comparison_of_spacer_counts_edgeR.R). The results were plotted using a custom Rscripts (plotting_scatter_plot.R, barplot_with_points.R, scatter_plot_commands.R). […]
To test the ability of CRISPRtOE to identify antibiotic-relevant gene phenotypes at the genome-scale, the libraries were grown in the presence or absence of a sub-lethal concentration of TMP and relative strain abundance was measured.

[4] = tested on: E. coli murA CRISPRtOE strains vs lacZ controls; assay: CRISPRtOE pooled library competitive growth assay with fosfomycin; assay type: cell-based, E. coli K-12; conditions: fosfomycin 0.4 μg/ml, ~10-15 doublings
Experimental: as §1, §2

lacZ = assay: CRISPRt disruption of lacZ, blue-white screening of transconjugants; assay type: cell-based, E. coli K-12; conditions: lacZ targeted
Experimental: Transfer of the CRISPRt/CRISPRtOE system to the bacterial chromosome. CRISPRt and CRISPRtOE strains were constructed by triparental mating of two E. coli donor strains-one with the pCRISPRt-H plasmid encoding Cas678-TniQ-TnsABC and another with the pCRISPRt-T or pCtOE plasmid containing the transposon with the guide RNA and antibiotic resistance- and a recipient strain (Table 1). All conjugations and selection post-conjugation were carried out at 30° C. regardless of the normal incubation temperature for the organism. Isolated donor and recipient strains were struck out on plates with the appropriate media and antibiotic (if relevant) concentrations. Colonies were resuspended from plates into the growth medium used for the recipient to a density of OD600=9. […]
For lacZ targeted CRISPRt, the color of 80 individual colonies was determined by patching on LB agar plates containing X-gal (20 μg/ml). […]
To test the precision of CRISPRt, both endogenous (lacZ) and heterologous (gfp) reporter genes were targeted for disruption in E. coli K-12 (data not shown). […] Next, targeting on the genome scale was determined by sequencing genomic DNA at the Tn6677 transposon junction (Tn-seq) using Illumina®-based Next Generation Sequencing (NGS). […]

E. coli genome = assay: Tn-seq of CRISPRt transposon insertion sites (specificity, orientation); assay type: cell-based, E. coli K-12; conditions: insertions ~49 bp downstream of protospacer
Source text: FIGS. 1a-e illustrate a mobilizable, selectable, dual-plasmid system for CRISPR-guided transposition. 1a. Schematic of a targeted transposition gene knockout (CRISPRt) and gene overexpression (CRISPRtOE) system optimized for functional genomics. 1b. Schematic of mechanism of Vibrio cholera Type I-F CRISPR-associated transposon (Vc CAST) system. 1c. Schematic of strain construction using the CRISPRt targeted transposition system. Plasmids have pir-dependent origins of replication preventing replication in the bacterial recipient. […] Inside the recipient cell, the transposon (flanked in yellow) is inserted onto the chromosome at a site determined by the sequence of the guide RNA. […] Specificity of CRISPRt disruption of gfp and lacZ in E. coli measured by Tnseq. Mapping of location of transposon insertion sites to the E. coli genome after CRISPRt targeted transposition with gfp1 guide (226,671 reads) or LZ1 guide (216,801 reads). […]
Tnseq analysis of CRISPRt/CRISPRtOE constructs. […] PCR products were spin-purified (eluted in 15 μl) and quantified fluorometrically. […] Briefly, PCR products were amplified with nested primers containing i5 and i7 indexes and Illumina® TruSeq™ adapters followed by bead cleanup, quantification, pooling and running on a NovaSeq X Plus (150 bp paired end reads) or MiSeq (250 bp paired end reads). […]

COc1cc(Cc2cnc(N)nc2N)cc(OC)c1OC [TMP, trimethoprim]
increase in abundance of folA OE strains relative to lacZ controls [1]: 22 fold
shift in MIC between parent strains and folA CRISPRtOE isolates [2]: 15 to 30 fold
enrichment of folA-associated spacers [3]: > 1000 fold

C[C@@H]1O[C@@H]1P(=O)(O)O [FOS, fosfomycin]
increase in abundance of murA OE strains relative to lacZ controls [4]: 52 fold

lacZ: gRNA spacer LZ1 (Petassi, PMID: 33271061), SEQ ID NO: 16, targeting lacZ (guide CAACTTAATCGCCTTGCAGCACATCCCCCTTT; chemistry not given here)
transconjugants showing the expected disruption phenotype (lacZ): 100%
insertions in R-L orientation (E. coli genome): 74.1%
